In US8952042B2, “FXR (NR1H4) binding and activity modulating compounds” (Phenex Pharmaceuticals AG, priority 2009, dated 2015):

What was measured:
[1] = UV photostability, irradiation at 254 nm, 1H NMR; format: physicochemical; conditions: 70 h UV irradiation at 254 nm
Method: The compounds of interest were dissolved using ethanol and their UV spectrum was analyzed to determine their λmax to establish an irradiation wavelength to be used in the study (see FIG. 2). The best wavelength for testing the UV stability of the —CH═CH— double bond was determined to be 254 nm. Further material of the compounds was then dissolved in deuterated ethanol and the ^1H NMRs (400 MHz) analyzed (T=0). Each sample was then recovered from the NMR tube and subjected to UV irradiation (254 nm) for 4 h, 15 h and 70 h. At the respective timepoints the individual samples were re-analyzed by ^1H NMR and the signal for the —CH═CH— protons evaluated to assess the percent of remaining intact double bond. Other changes in the chemical shift signals were also analyzed for further changes on the overall structure of the molecules.

[2] = target: T1, FXR ligand binding domain (Homo sapiens, UniProt Q96RI1); assay: Mammalian One Hybrid (M1H) Gal4 reporter assay in HEK293 cells; format: cell-based; conditions: potency range
T1 construct: expressed in transfected cells; host or cells: HEK293 cells (DSMZ), transient transfection of pCMV-BD-FXR-LBD
T1 sequence (Q96RI1 187-472 isoform Q96RI1-2): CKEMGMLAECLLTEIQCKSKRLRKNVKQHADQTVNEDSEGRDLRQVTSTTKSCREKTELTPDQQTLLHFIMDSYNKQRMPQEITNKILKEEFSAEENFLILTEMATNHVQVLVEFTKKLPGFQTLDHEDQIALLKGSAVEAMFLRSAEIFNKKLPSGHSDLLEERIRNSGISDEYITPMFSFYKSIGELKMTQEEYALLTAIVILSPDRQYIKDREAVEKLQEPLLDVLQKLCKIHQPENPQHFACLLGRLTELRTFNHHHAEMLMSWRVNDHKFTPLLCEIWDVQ
Method: Determination of a ligand mediated Gal4 promoter driven transactivation to quantify ligand binding mediated activation of FXR was performed as follows: The cDNA part encoding the FXR ligand binding domain was cloned into vector pCMV-BD (Stratagene) as a fusion to the yeast GAL4 DNA binding domain under the control of the CMV promoter. The amino acid boundaries of the ligand binding domain were amino acids 187-472 of Database entry NM_005123 (RefSeq). The plasmid pFR-Luc (Stratagene) was used as the reporter plasmid, containing a synthetic promoter with five tandem repeats of the yeast GAL4 binding sites, driving the expression of the Photinus pyralis (American firefly) luciferase gene as the reporter gene. In order to improve experimental accuracy the plasmid pRL-CMV (Promega) was cotransfected. pRL-CMV contains the constitutive CMV promoter, controlling the expression of the Renilla reniformis luciferase. All Gal4 reporter gene assays were done in HEK293 cells (obtained from DSMZ, Braunschweig, Germany) grown in MEM with L-Glutamine and Earle's BSS supplemented with 10% fetal bovine serum, 0.1 mM nonessential amino acids, 1 mM sodium pyruvate, and 100 units Penicillin/[…] per mL at 37° C. in 5% CO2. Medium and supplements were obtained from Invitrogen. For the assay, […] were plated per well in 96 well plates in 100 μL per well MEM without Phenol Red and L-Glutamine and with Earle's BSS supplemented with 10% charcoal/dextran treated FBS (HyClone, South Logan, Utah), 0.1 mM nonessential amino acids, 2 mM glutamine, 1 mM sodium pyruvate, and 100 units Penicillin/[…] per mL, incubated at 37° C. in 5% CO2. The following day the cells were >90% confluence. Medium was removed and cells were transiently transfected using 20 μL per well of a OptiMEM—polyethylene-imine-based transfection-reagent (OptiMEM, Invitrogen; Polyethyleneimine, Aldrich Cat No. 40, 827-7) including the three plasmids described above. MEM with the same composition as used for plating cells was added 2-4 h after addition of transfection mixture. Then compound stocks, prediluted in MEM were added (final vehicle concentration not exceeding 0.1%). Cells were incubated for additional 16 h before firefly and renilla luciferase activities were measured sequentially in the same cell extract using a Dual-Light-Luciferase-Assay system (Dyer et al., Anal. Biochem. 2000, 282, 158-161). All experiments were done in triplicates.

[3] = UV stability, irradiation at 366 nm on a DMSO thin film, LCMS; format: physicochemical; conditions: 366 nm emission, 250 μM in DMSO thin film, FIG. 3m
Method: A different, more rapid experimental setup was used to investigate a broader set of compounds in comparison to GW4064. The substances were dissolved in reagent grade DMSO (99.5%, Karl Roth) at a concentration of 250 μM. DMSO solution was spread over a silica glass slide to a depth of approximately 2 mm and irradiated using a UV lamp set to 366 nm emission (Benda Instruments, Wiesloch Germany) using an 8 W tube set approximately 2.5 cm from the target materials. The solution was sampled prior to irradiation (T=0 min) and at various intervals thereafter. Stocks and samples were maintained in foil wrapped tubes out of direct light. Samples were injected (2 μL) directly onto a LCMS System for analysis without any further preparation.

[4] = system: BSEP and SHP gene expression; assay: FXR target gene induction in mouse liver (qRT-PCR), high fat diet mice; format: in vivo, C57/bI6 mice; conditions: HFD mice, estimated 30 mg/kg daily in food, normalized to TBP
Method: C57/bI6 mice (Elevage Janvier, France) at the age of 8 weeks were put on a high fat diet (60% kcal from fat, Sniff, Soest, Germany, Cat. No. E15771-30 (Mod. Surwit)+0.5 cholesterol (Sigma-Aldrich, Germany) added) for 4 weeks. Baseline blood samples were taken after overnight starvation and fasting plasma glucose was determined using a Roche Accucheck device. In parallel L1-heparin plasma was generated for the determination of baseline total triglyceride (TG) and total cholesterol (TC) levels. Animals were maintained on the HFD+0.5% cholesterol diet for 8 weeks and weekly blood samples were taken for the monitoring of plasma TG and TC levels using routine enzymatic analysis kits (WAKO Diagnostics, Neuss, Germany). The test compounds were dissolved in 100% palm fat and then mixed into molten food for an estimated daily uptake of 30 mg/kg based on averaged food consumption in the 4 weeks HFD adaptation period. FIGS. 4 and 5 show the development of TG and TC values.
RNA was isolated using RNAzol RT Reagent (Fermentas) and mRNA levels determined by quantitative reverse-transcription polymerase chain reaction (qRT-PCR) using Absolute QPCR Rox Mix (Invitrogen) and a real-time PCR machine from Applied Biosystems (CA). Primer and probe sequences (5′ to 3′) used were: SHP, Fwd […]; Rev […]; probe 56-FAM/[…] and BSEP, Fwd […]; Rev […]; probe 56-FAM/ATGGCT […]. All samples were run in duplicate. […]

behaviour in 1H NMR spectrum after prolonged UV irradiation [1] | EC50 [2] [nM] | photostability compared to GW4064 [3] | SMILES | gene expression of BSEP in liver [4] [fold] | gene expression of SHP in liver [4] [fold]
inert | 10 to 100 | – | O=C(O)c1cccc(C2CC2c2ccc(OCc3c(-c4c(Cl)cccc4Cl)noc3C3CC3)cc2Cl)c1 (racemic) [Example 4, 3-(2-(2-chloro-4-((5-cyclopropyl-3-(2,6-dichlorophenyl)isoxazol-4-yl)methoxy)phenyl)-cyclopropyl)benzoic acid] | – | –
– | 10 to 100 | higher photostability | O=C(O)c1ccc(C2CC2c2ccc(OCc3c(-c4c(Cl)cccc4Cl)noc3C3CC3)cc2Cl)cc1 (racemic) [Example 12, 4-(2-(2-chloro-4-((5-cyclopropyl-3-(2,6-dichlorophenyl)isoxazol-4-yl)methoxy)phenyl)cyclopropyl)benzoic acid] | 6 | 6
